Experimental data reported in ChEMBL document CHEMBL1926585, “Triterpenoids with rare carbon skeletons from Salvia hydrangea: antiprotozoal activity and absolute configurations” (J Nat Prod, 2011).

Key:
[1] = system: Trypanosoma brucei rhodesiense; test: Antitrypanosomal activity against Trypanosoma brucei rhodesiense STIB900; format: functional, organism-based
Plasmodium falciparum = test: Antiplasmodial activity against Plasmodium falciparum K1; format: functional, organism-based
[2] = Selectivity index, ratio of IC50 for rat L6 cells to IC50 for Plasmodium falciparum K1; format: toxicity, cell-based; conditions: L6 cells versus Plasmodium falciparum K1, read-out: Ratio IC50
[3] = Selectivity index, ratio of IC50 for rat L6 cells to IC50 for Trypanosoma brucei rhodesiense STIB900; format: toxicity, cell-based; conditions: L6 cells versus Trypanosoma brucei rhodesiense STIB900, read-out: Ratio IC50
L6 = test: Cytotoxicity against rat L6 cells; format: cell-based

Row | Structure (SMILES) | IC50 [1] | IC50 (Plasmodium falciparum) | selectivity ratio [2] | selectivity ratio [3] | IC50 (L6)
1 | C=CC1=C[C@@H]2[C@@H]3[C@]4(C(C)C)C(=O)[C@]5(CC[C@H]6C(C)(C)CCC[C@]67C[C@]25[C@@](OC[C@@]3(C)O)(O7)C4=O)C1 [SALVADIONE C] | 4.33 µM | 1.43 µM | 86.6 | 43.2 | > 90 µM
2 | CC1=CC(=O)[C@@]23CC[C@@H]4C(C)(C)CCC[C@@]45C[C@]24[C@@H]1C[C@H]1C(C)(C)OC(=C(C(C)C)C3=O)[C@]14O5 [PEROVSKONE B] | 15.9 µM | 0.18 µM | 69.6 | 0.78 | 5.77 µM
